ChEMBL document CHEMBL1149262, “Monoamine transporter binding, locomotor activity, and drug discrimination properties of 3-(4-substituted-phenyl)tropane-2-carboxylic acid methyl ester isomers” (J Med Chem, 2004)
Activity calls are given as the source filed them. The rule behind the calls is not given here.

How the values were obtained:
[1] = tested on: Rattus norvegicus; assay: Drug discrimination effect in CD Albino rat assessed as percent of rat choosing cocaine lever at 10 mg/kg, ip; assay type: functional; conditions: route intraperitoneal
[2] = tested on: Mus musculus; assay: Locomotor activity in CD1 mouse assessed as stimulation at 1 mg/kg, ip after 4 hrs relative to control; assay type: functional; conditions: route intraperitoneal
[3] = tested on: Mus musculus; assay: Locomotor activity in CD1 mouse assessed as stimulation at 30 mg/kg, ip after 2 hrs relative to control; assay type: functional; conditions: route intraperitoneal
[4] = tested on: Mus musculus; assay: Locomotor activity in CD1 mouse assessed as stimulation at 1 mg/kg, ip after 3 hrs relative to control; assay type: functional; conditions: route intraperitoneal
[5] = tested on: Mus musculus; assay: Activity in CD1 mouse assessed as stereotypy at 100 mg/kg, ip after 4 hrs; assay type: functional, organism-based; set-up: dose 100 mg/kg
[6] = tested on: Mus musculus; assay: Locomotor activity in CD1 mouse assessed as stimulation at 3 mg/kg, ip after 2 hrs relative to control; assay type: functional; conditions: route intraperitoneal
[7] = tested on: Mus musculus; assay: Locomotor activity in CD1 mouse assessed as stimulation at 30 mg/kg, ip after 1 hr relative to control; assay type: functional; conditions: route intraperitoneal
[8] = tested on: Rattus norvegicus; assay: Drug discrimination effect in CD Albino rat assessed as percent of rat choosing cocaine lever at 5.6 mg/kg, ip; assay type: functional; conditions: route intraperitoneal
[9] = tested on: Mus musculus; assay: Activity in CD1 mouse assessed as death at 100 mg/kg, ip after 4 hrs; assay type: functional, organism-based; set-up: dose 100 mg/kg
[10] = tested on: Mus musculus; assay: Activity in CD1 mouse assessed as straub tail at 100 mg/kg, ip after 4 hrs; assay type: functional, organism-based; set-up: dose 100 mg/kg
[11] = tested on: Mus musculus; assay: Locomotor activity in ip dosed CD1 mouse in peak hour; assay type: functional
[12] = tested on: Mus musculus; assay: Locomotor activity in CD1 mouse assessed as stimulation at 1 mg/kg, ip after 2 hrs relative to control; assay type: functional; conditions: route intraperitoneal
[13] = tested on: Mus musculus; assay: Locomotor activity in CD1 mouse assessed as stimulation at 10 mg/kg, ip after 2 hrs relative to control; assay type: functional; conditions: route intraperitoneal
[14] = tested on: Mus musculus; assay: Locomotor activity in CD1 mouse assessed as stimulation at 30 mg/kg, ip after 3 hrs relative to control; assay type: functional; conditions: route intraperitoneal
[15] = target: Sodium-dependent serotonin transporter (Homo sapiens, UniProt P31645)
Chain of Sodium-dependent serotonin transporter (P31645 whole entry): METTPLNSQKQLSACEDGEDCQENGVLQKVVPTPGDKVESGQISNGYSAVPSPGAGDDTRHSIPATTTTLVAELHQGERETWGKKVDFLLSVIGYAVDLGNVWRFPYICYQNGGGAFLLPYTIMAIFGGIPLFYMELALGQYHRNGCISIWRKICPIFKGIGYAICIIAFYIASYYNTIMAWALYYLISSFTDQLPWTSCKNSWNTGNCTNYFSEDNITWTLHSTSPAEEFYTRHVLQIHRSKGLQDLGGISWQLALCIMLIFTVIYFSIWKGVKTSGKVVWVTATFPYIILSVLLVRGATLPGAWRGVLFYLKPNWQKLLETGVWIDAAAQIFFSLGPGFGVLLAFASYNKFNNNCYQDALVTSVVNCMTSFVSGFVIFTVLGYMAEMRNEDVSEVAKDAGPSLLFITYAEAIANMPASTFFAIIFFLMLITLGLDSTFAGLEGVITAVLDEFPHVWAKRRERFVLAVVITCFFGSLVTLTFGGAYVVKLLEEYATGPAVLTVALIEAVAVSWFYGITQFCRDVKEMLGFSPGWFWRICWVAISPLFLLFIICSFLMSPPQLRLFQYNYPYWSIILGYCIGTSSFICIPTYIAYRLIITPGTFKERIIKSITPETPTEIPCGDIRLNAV
Description: Displacement of [3H]paroxetine from 5HTT

[16] = tested on: Mus musculus; assay: Activity in CD1 mouse assessed as convulsions at 100 mg/kg, ip after 4 hrs; assay type: functional, organism-based; set-up: dose 100 mg/kg
[17] = tested on: Mus musculus; assay: Activity in CD1 mouse assessed as circling at 100 mg/kg, ip after 4 hrs; assay type: functional, organism-based; set-up: dose 100 mg/kg
[18] = tested on: Mus musculus; assay: Locomotor activity in CD1 mouse assessed as stimulation at 10 mg/kg, ip after 3 hrs relative to control; assay type: functional; conditions: route intraperitoneal
[19] = tested on: Rattus norvegicus; assay: Cocaine discrimination in ip dosed CD Albino rat; assay type: functional
[20] = tested on: Mus musculus; assay: Activity in CD1 mouse assessed as hypoactivity at 10 mg/kg, ip after 4 hrs; assay type: functional, organism-based; set-up: dose 10 mg/kg
[21] = tested on: Mus musculus; assay: Activity in CD1 mouse assessed as hypoactivity at 100 mg/kg, ip after 4 hrs; assay type: functional, organism-based; set-up: dose 100 mg/kg
[22] = target: Sodium-dependent dopamine transporter (Homo sapiens, UniProt Q01959); assay: Displacement of [3H]WIN-35428 from DAT
Chain of Sodium-dependent dopamine transporter (Q01959 whole entry): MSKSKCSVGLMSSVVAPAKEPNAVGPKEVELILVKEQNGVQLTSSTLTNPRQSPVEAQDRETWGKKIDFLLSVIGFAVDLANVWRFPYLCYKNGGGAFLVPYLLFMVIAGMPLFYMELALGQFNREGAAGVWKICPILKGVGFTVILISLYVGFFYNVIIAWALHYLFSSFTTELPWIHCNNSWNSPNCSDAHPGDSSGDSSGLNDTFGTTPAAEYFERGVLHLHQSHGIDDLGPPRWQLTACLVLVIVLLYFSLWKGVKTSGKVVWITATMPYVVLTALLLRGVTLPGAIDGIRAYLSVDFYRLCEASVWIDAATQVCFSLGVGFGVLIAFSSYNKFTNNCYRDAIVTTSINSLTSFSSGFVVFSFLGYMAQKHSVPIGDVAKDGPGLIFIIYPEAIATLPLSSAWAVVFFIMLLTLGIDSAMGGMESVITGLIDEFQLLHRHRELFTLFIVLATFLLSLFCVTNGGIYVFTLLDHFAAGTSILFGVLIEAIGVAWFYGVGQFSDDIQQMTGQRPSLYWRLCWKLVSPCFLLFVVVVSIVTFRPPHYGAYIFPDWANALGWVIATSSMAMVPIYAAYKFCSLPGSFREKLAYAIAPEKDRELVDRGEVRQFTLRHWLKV

[23] = tested on: Mus musculus; assay: Locomotor activity in CD1 mouse assessed as stimulation at 10 mg/kg, ip after 1 hr relative to control; assay type: functional; conditions: route intraperitoneal
[24] = tested on: Mus musculus; assay: Locomotor activity in CD1 mouse assessed as stimulation at 1 mg/kg, ip after 1 hr relative to control; assay type: functional; conditions: route intraperitoneal
[25] = tested on: Mus musculus; assay: Activity in CD1 mouse assessed as stereotypy at 10 mg/kg, ip after 4 hrs; assay type: functional, organism-based; set-up: dose 10 mg/kg
[26] = tested on: Rattus norvegicus; assay: Drug discrimination effect in CD Albino rat assessed as percent of rat choosing cocaine lever at 3 mg/kg, ip; assay type: functional; conditions: route intraperitoneal
[27] = tested on: Mus musculus; assay: Locomotor activity in CD1 mouse assessed as stimulation at 30 mg/kg, ip after 4 hrs relative to control; assay type: functional; conditions: route intraperitoneal
[28] = tested on: Mus musculus; assay: Locomotor activity in CD1 mouse assessed as stimulation at 3 mg/kg, ip after 3 hrs relative to control; assay type: functional; conditions: route intraperitoneal
[29] = tested on: Mus musculus; assay: Locomotor activity in CD1 mouse assessed as stimulation at 3 mg/kg, ip after 4 hrs relative to control; assay type: functional; conditions: route intraperitoneal
[30] = tested on: Mus musculus; assay: Locomotor activity in CD1 mouse assessed as stimulation at 10 mg/kg, ip after 4 hrs relative to control; assay type: functional; conditions: route intraperitoneal
[31] = tested on: Mus musculus; assay: Activity in CD1 mouse assessed as ptosis at 10 mg/kg, ip after 4 hrs; assay type: functional, organism-based; set-up: dose 10 mg/kg
[32] = tested on: Mus musculus; assay: Activity in CD1 mouse assessed as ptosis at 100 mg/kg, ip after 4 hrs; assay type: functional, organism-based; set-up: dose 100 mg/kg
[33] = tested on: Mus musculus; assay: Locomotor activity in CD1 mouse assessed as stimulation at 3 mg/kg, ip after 1 hr relative to control; assay type: functional; conditions: route intraperitoneal
[34] = tested on: Mus musculus; assay: Activity in CD1 mouse assessed as slight or intermittent stimulation at 10 mg/kg, ip after 4 hrs; assay type: functional, organism-based; set-up: dose 10 mg/kg
[35] = tested on: Mus musculus; assay: Activity in CD1 mouse assessed as ataxia at 100 mg/kg, ip after 4 hrs; assay type: functional, organism-based; set-up: dose 100 mg/kg
[36] = target: Sodium-dependent noradrenaline transporter (Homo sapiens, UniProt P23975); assay: Displacement of [3H]nisoxetine from NET
Chain of Sodium-dependent noradrenaline transporter (P23975 whole entry): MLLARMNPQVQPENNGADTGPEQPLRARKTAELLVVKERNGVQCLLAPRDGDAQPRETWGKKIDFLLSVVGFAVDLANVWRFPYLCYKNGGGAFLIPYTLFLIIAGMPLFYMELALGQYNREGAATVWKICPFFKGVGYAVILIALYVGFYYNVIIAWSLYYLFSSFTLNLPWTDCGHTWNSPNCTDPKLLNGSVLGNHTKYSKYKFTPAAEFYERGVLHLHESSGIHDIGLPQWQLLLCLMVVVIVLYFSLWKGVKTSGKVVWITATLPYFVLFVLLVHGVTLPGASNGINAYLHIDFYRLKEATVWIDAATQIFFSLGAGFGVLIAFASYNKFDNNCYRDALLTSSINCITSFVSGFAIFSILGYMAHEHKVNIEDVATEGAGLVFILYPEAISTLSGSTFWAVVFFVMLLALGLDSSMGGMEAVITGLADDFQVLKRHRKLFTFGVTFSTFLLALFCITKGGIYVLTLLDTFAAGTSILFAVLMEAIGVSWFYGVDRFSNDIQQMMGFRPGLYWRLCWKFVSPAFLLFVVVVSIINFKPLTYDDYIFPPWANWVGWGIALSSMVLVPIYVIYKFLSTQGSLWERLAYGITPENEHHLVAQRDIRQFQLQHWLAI

[37] = tested on: Mus musculus; assay: Activity in CD1 mouse assessed as hind limb splay at 100 mg/kg, ip after 4 hrs; assay type: functional, organism-based; set-up: dose 100 mg/kg; conditions: Hindlimb
[38] = tested on: Rattus norvegicus; assay: Drug discrimination effect in CD Albino rat assessed as percent of rat choosing cocaine lever at 17 mg/kg, ip; assay type: functional; conditions: route intraperitoneal
[39] = tested on: Rattus norvegicus; assay: Drug discrimination effect in CD Albino rat assessed as percent of rat choosing cocaine lever at 30 mg/kg, ip; assay type: functional; conditions: route intraperitoneal
[40] = tested on: Mus musculus; assay: Locomotor activity in CD1 mouse assessed as stimulation at 0.3 mg/kg, ip after 1 hr relative to control; assay type: functional; conditions: route intraperitoneal
[41] = tested on: Rattus norvegicus; assay: Drug discrimination effect in CD Albino rat assessed as percent of rat choosing cocaine lever at 1 mg/kg, ip; assay type: functional; conditions: route intraperitoneal
[42] = tested on: Mus musculus; assay: Locomotor activity in CD1 mouse assessed as stimulation at 0.3 mg/kg, ip after 3 hrs relative to control; assay type: functional; conditions: route intraperitoneal
[43] = tested on: Mus musculus; assay: Locomotor activity in CD1 mouse assessed as stimulation at 0.3 mg/kg, ip after 2 hrs relative to control; assay type: functional; conditions: route intraperitoneal
[44] = tested on: Mus musculus; assay: Locomotor activity in CD1 mouse assessed as stimulation at 0.3 mg/kg, ip after 4 hrs relative to control; assay type: functional; conditions: route intraperitoneal
[45] = tested on: Mus musculus; assay: Activity in CD1 mouse assessed as slight or intermittent hyperactivity at 1 mg/kg, ip after 4 hrs; assay type: functional, organism-based; set-up: dose 1 mg/kg
[46] = tested on: Rattus norvegicus; assay: Drug discrimination effect in CD Albino rat assessed as percent of rat choosing cocaine lever at 0.3 mg/kg, ip; assay type: functional; conditions: route intraperitoneal
[47] = tested on: Mus musculus; assay: Activity in CD1 mouse assessed as hyperactivity at 10 mg/kg, ip after 4 hrs; assay type: functional, organism-based; set-up: dose 10 mg/kg
[48] = tested on: Rattus norvegicus; assay: Drug discrimination effect in CD Albino rat assessed as percent of rat choosing cocaine lever at 0.17 mg/kg, ip; assay type: functional; conditions: route intraperitoneal
[49] = tested on: Rattus norvegicus; assay: Drug discrimination effect in CD Albino rat assessed as percent of rat choosing cocaine lever at 0.56 mg/kg, ip; assay type: functional; conditions: route intraperitoneal
[50] = tested on: Mus musculus; assay: Activity in CD1 mouse assessed as slight or intermittent stereotypy at 1 mg/kg, ip after 4 hrs; assay type: functional, organism-based; set-up: dose 1 mg/kg
[51] = tested on: Rattus norvegicus; assay: Drug discrimination effect in CD Albino rat assessed as percent of rat choosing cocaine lever at 1.7 mg/kg, ip; assay type: functional; conditions: route intraperitoneal
[52] = tested on: Mus musculus; assay: Activity in CD1 mouse assessed as stimulation at 1 mg/kg, ip after 4 hrs; assay type: functional, organism-based; set-up: dose 1 mg/kg
[53] = tested on: Mus musculus; assay: Activity in CD1 mouse assessed as stimulation at 10 mg/kg, ip after 4 hrs; assay type: functional, organism-based; set-up: dose 10 mg/kg
[54] = tested on: Mus musculus; assay: Activity in CD1 mouse assessed as tremor at 100 mg/kg, ip after 4 hrs; assay type: functional, organism-based; set-up: dose 100 mg/kg

Row | Structure (SMILES) | Activity [2] [%] | Activity [3] [%] | Activity [4] [%] | Activity [5] | Activity [6] [%] | Activity [7] [%] | Activity [8] [%] | ED50 [11] [mg/kg] | Activity [12] [%] | Activity [13] [%] | Activity [14] [%] | Activity [16] | Activity [18] [%] | ED50 [19] [mg/kg] | Activity [23] [%] | Activity [24] [%] | Activity [28] [%] | Activity [29] [%] | Activity [30] [%] | Activity [33] [%] | further results
1 | COC(=O)[C@H]1C2CCC(C[C@@H]1c1ccc(Br)cc1)N2C (some centres not stated) | -5 | 640 | 56 | Active | 123 | -33 | 17 | 10 | 26 | 268 | 901 | Active | 267 | 7.29 | 49 | 9 | 100 | 29 | 74 | 19 | Activity [1]: 86%; Activity [9]: Active; Activity [10]: Active; IC50 [15]: 570 nM; Ki [15]: 140 nM; Activity [17]: Active; Activity [20]: Active; Activity [21]: Active; IC50 [22]: 15.7 nM; Activity [25]: Active; Activity [26]: 25%; Activity [27]: 373%; Activity [31]: Active; Activity [32]: Active
2 | COC(=O)[C@H]1C2CCC(C[C@@H]1c1ccc(C)cc1)N2C (some centres not stated) | -68 | 7 | 39 |  | 10 | -23 | 43 |  | -76 | -11 | 17 | Active | 6 | 7.11 | 24 | -42 | -1 | 39 | 55 | 20 | Activity [1]: 71%; Activity [34]: Active; Activity [35]: Active; Activity [17]: Active; Activity [21]: Active; IC50 [22]: 207 nM; Activity [26]: 13%; IC50 [36]: 2230 nM; Ki [36]: 1120 nM; Activity [37]: Active; Activity [27]: 42%; Activity [38]: 71%; Activity [39]: 100%
3 | COC(=O)[C@H]1[C@@H](c2ccc(F)cc2)C[C@H]2CC[C@H]1N2C | -29 |  | 28 | Active | 558 |  |  | 0.7 | 232 | 220 |  | Active | 594 | 0.29 | 330 | 333 | 199 | 140 | 739 | 633 | Activity [40]: 5%; Activity [41]: 100%; Activity [42]: -66%; Activity [43]: -33%; Activity [44]: -47%; Activity [10]: Active; Activity [45]: Active; IC50 [15]: 692 nM; Ki [15]: 63 nM; Activity [46]: 57%; Activity [47]: Active; Activity [48]: 0%; Activity [25]: Active; Ki [36]: 503 nM; Activity [49]: 86%; Activity [50]: Active
4 | COC(=O)[C@@H]1C2CCC(C[C@H]1c1ccc(Br)cc1)N2C (some centres not stated) | -12 | 861 | -56 | Active | 88 | 518 | 88 | 6.6 | -26 | 457 | 1275 |  | 686 | 2.98 | 353 | 35 | 100 | 109 | 781 | 60 | Activity [41]: 13%; Activity [51]: 13%; IC50 [15]: 84 nM; Ki [15]: 20.6 nM; Activity [17]: Active; Activity [52]: Active; Activity [47]: Active; IC50 [22]: 1.7 nM; Activity [25]: Active; Activity [26]: 50%; Activity [27]: 883%
5 | COC(=O)[C@H]1C2CCC(C[C@@H]1c1ccc(Cl)cc1)N2C (some centres not stated) | 62 | 493 | 83 | Active | 188 | 154 | 88 | 4.3 | 50 | 1003 | 911 | Active | 1275 | 4.07 | 248 | 15 | 92 | 15 | 667 | 68 | Activity [1]: 67%; Activity [35]: Active; Activity [53]: Active; Activity [9]: Active; Activity [10]: Active; Activity [54]: Active; Activity [17]: Active; IC50 [22]: 25 nM; Activity [26]: 13%; Activity [27]: 794%
